Tests used:
[1] = test system: LPS-induced BAL neutrophilia; test: LPS Challenge Assay (neutrophil migration into the airway after aerosol LPS challenge); format: in vivo, Han Wistar (HW) rat; details: Han Wistar rat; nose-only inhalation; nebuliser concentration of <1 mg/mL; dosed 0.5 hour before the LPS challenge
Protocol: The following is a description of an assay that may be used to evaluate a compounds activity on neutrophil migration into the airway after aerosol challenge with lipopolysaccharide (LPS) in the Han Wistar (HW) rat.
LPS challenge in HW rats caused an influx of inflammatory cells into the lungs. Rats were challenged either with an aerosol of 0.9% w/v saline or 0.5 mg/mL LPS in 0.9% saline for 30 min. Rats were dosed with vehicle or test compound by nose-only inhalation administration at various time points before challenge depending upon the experimental protocol. Test compound groups could either be the same compound at different doses or single doses of different compounds. […]
The rats were euthanized with 200 mg pentobarbitone sodium at various time points after challenge depending upon the nature of the study, but typically 4 hr after LPS challenge. […] An aliquot of BAL fluid was removed and counted on the Sysmex XT2000Vet automated cell counter (Sysmex UK, Milton Keynes). […] Cells were classified as eosinophils, neutrophils or mononuclear cells (mononuclear cells included monocytes, macrophages and lymphocytes) and were expressed as a percentage of the total cell count.
Compounds were scored as active if a statistically significant (i.e. p<0.05) inhibition of the LPS-induced BAL neutrophilia response was observed.

[2] = biological target: T1, human active recombinant p38 (p38α) (Homo sapiens, UniProt Q16539); test: p38 Alpha Enzyme Assay (AlphaScreen, biotinylated-ATF2 substrate); format: biochemical; details: means of replicate determinations; pre-incubated for 4 hours at 37° C.; SD of assay between 0.2 and 0.3 log units; read-out: p38α inhibition Mean pIC50 (converted)
T1 construct: 6His
T1 sequence (Q16539 whole entry): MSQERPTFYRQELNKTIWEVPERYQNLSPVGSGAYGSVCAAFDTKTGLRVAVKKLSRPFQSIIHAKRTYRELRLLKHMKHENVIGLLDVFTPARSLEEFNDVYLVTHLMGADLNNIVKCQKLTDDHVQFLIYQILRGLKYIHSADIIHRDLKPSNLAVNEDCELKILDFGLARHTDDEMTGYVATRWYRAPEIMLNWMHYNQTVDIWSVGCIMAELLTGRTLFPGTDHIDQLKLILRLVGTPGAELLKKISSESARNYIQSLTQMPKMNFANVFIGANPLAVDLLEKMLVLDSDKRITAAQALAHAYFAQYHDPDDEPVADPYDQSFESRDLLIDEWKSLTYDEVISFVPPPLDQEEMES

[3] = test system: mouse lymphoma L5178Y cells; test: In Vitro Micronucleus Assay (genotoxicity); format: cell-based; details: 3 hours exposure in the presence or absence of S9 mix, up to 1 mmol/L or solubility limit
Excerpt: In Vitro Micronucleus Assay
The following is a description of an assay that may be used to assess the genotoxicity of a compound using mouse lymphoma […] cells.
The in vitro micronucleus assay (IVM) detects chemicals that induce chromosomal damage by measuring the formation of small intra cell membrane-bound DNA fragments. At AstraZeneca, L5178Y cells are used as these are the cells of choice for follow on regulatory mammalian cell in vitro genotoxicity screening. The test system is simple to perform and produces rapid results. The IVM is suitable as a preliminary genetic toxicity-screening assay prior to compound selection.
A wide range of test chemical concentrations, up to 1 mmol/L or the chemicals solubility limit, is tested. […] Where possible, 20 hours after treatment exposure, at least three concentrations giving acceptable levels of toxicity (greater than 10% survival as measured by two day relative suspension growth) are selected for analysis of micronucleated cells. […] Where possible, a total of at least 1000 cells per culture are scored.
For any concentration, an increase in the number of micronucleated cells is considered to be significant if the increase is at least 2-fold the concurrent solvent control level, and the number of micronucleated cells is greater than 8 per thousand cells scored.

SMILES: Cc1c(F)cc(C(=O)NC2CC2)cc1-c1ccc2c(=O)n(CC(C)(C)CO)cc(CN3CCNC[C@H]3C)c2c1 [Example 26, N-Cyclopropyl-3-fluoro-5-[2-(3-hydroxy-2,2-dimethylpropyl)-4-{[(2R)-2-methylpiperazin-1-yl]methyl}-1-oxo-1,2-dihydroisoquinolin-6-yl]-4-methylbenzamide]
- activity in LPS Challenge Assay (active = statistically significant, p<0.05, inhibition of the LPS-induced BAL neutrophilia response) [1]: active
- IC50 [2]: 0.251 nM
- activity in micronucleus assay (significant = at least 2-fold solvent control and more than 8 micronucleated cells per thousand) [3]: inactive
